These compounds were tested against T1, human M4 muscarinic acetylcholine receptor (Homo sapiens, UniProt P08173) (assay: human FLIPR-based M4 PAM assay (Ca2+ dye fluorescence, CHO-K1 cells with human M4 receptor and Gαqi5)). Details: inflection point (IP) of dose response curve, FLIPR Tetra, acetylcholine at 20% of maximum response.
T1 construct: expressed in transfected cells; host or cells: CHO-K1
T1 sequence (P08173 1-479): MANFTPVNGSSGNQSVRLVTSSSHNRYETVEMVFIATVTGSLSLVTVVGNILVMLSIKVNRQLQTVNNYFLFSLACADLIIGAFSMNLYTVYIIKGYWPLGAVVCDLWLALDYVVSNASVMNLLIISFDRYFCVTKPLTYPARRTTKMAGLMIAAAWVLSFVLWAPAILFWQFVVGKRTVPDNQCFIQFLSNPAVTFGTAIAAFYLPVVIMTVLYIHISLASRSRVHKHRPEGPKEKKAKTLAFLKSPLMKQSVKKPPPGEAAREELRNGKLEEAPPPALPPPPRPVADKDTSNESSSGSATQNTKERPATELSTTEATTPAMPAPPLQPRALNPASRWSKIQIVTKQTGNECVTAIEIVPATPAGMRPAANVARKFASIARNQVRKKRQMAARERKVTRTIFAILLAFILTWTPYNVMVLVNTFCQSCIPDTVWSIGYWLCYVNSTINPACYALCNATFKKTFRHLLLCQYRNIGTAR
Assay type: cell-based
Method: In a typical experiment the M4 muscarinic acetylcholine receptor modulating activity of the compounds of the present invention was determined in accordance with the following experimental method. CHO-K1 cells stably transfected with human M4 receptor and chimeric G-protein Gαqi5 (Coward P, et al., Analytical Biochemistry, 270:242-248 (1999)) are thawed from liquid N2 storage, resuspended in growth medium, plated in black, clear bottom 384 well plates, and incubated 16-20 hours at 37° C., 5% CO2. On the day of assay, growth medium is removed, the cells are washed 2 times with wash buffer, and cells are incubated in dye loading buffer at 37° C., 5% CO2 for ˜1 hour. Following dye loading the cell plates are placed in a FLIPR Tetra instrument and while monitoring dye fluorescence (excitation […]), 10 uL of test substance at increasing concentrations is added, and fluorescence values are recorded for 4 min. Next, 10 uL of acetylcholine is added (final concentration calculated so as to achieve 20% of the maximum acetycholine response), and the fluorescence reading is continued for 3.5 min. In some cases, a third addition of acetylcholine (final concentration calculated to achieve 70% of the maximal acetylcholine response) is performed. The resulting dose response curves are fit to a 4 parameter logistic equation and the final result is determined as the inflection point (IP) of the curve
CHO-K1 cells stably transfected with human M4 receptor and chimeric G-protein Gαqi5 are thawed from liquid N2 storage, resuspended in growth medium, plated in black, clear bottom 384 well plates, and incubated 16-20 hours at 37° C., 5% CO2.
On the day of assay, growth medium is removed, the cells are washed 2 times with wash buffer, and cells are incubated in dye loading buffer at 37° C., 5% CO2 for ˜1 h. Following dye loading the cell plates are placed in a FLIPR Tetra instrument and while monitoring dye fluorescence ([…]), 10 uL of test substance at increasing concentrations is added, and fluorescence values are recorded for 4 min. Next, 10 uL of acetylcholine is added (final concentration calculated so as to achieve 20% of the maximum acetycholine response), and the fluorescence reading is continued for 3.5 min. In some cases, a third addition of acetylcholine (final concentration calculated to achieve 70% of the maximal acetylcholine response) is performed.

EC50	Structure (SMILES)
1530 nM	Cc1c(N2CCC(OCC3(C)CC3)C3CC32)nc2c(c1C)C(=O)N(CCC#N)C2 (single isomer, unassigned) [Example 16, 3-(3,4-dimethyl-2-(5-((1-methylcyclopropyl)methoxy)-2-azabicyclo[4.1.0]heptan-2-yl)-5-oxo-5,7-dihydro-6H-pyrrolo[3,4-b]pyridin-6-yl)propanenitrile]
50 nM	Cc1c(N2CCC(OCC3(C)CC3)C3CC32)nc2c(c1C)C(=O)N(CCC#N)C2 (single isomer, unassigned) [Example 15, 3-(3,4-dimethyl-2-(5-((1-methylcyclopropyl)methoxy)-2-azabicyclo[4.1.0]heptan-2-yl)-5-oxo-5,7-dihydro-6H-pyrrolo[3,4-b]pyridin-6-yl)propanenitrile]
47 nM	CCc1cc2c(nc1N1CCC(OCC3(C)CC3)C3CC31)C(CO)N(C)C2=O (single isomer, unassigned) [Example 10, 3-ethyl-7-(hydroxymethyl)-6-methyl-2-(5-((1-methylcyclopropyl)methoxy)-2-azabicyclo[4.1.0]heptan-2-yl)-6,7-dihydro-5H-pyrrolo[3,4-b]pyridin-5-one]
116 nM	Cc1c(N2CCC(OCC3(C)CC3)C3CC32)nc2c(c1C)C(=O)N1CCC(O)CC21 (single isomer, unassigned) [Example 22, 9-hydroxy-3,4-dimethyl-2-(5-((1-methylcyclopropyl)methoxy)-2-azabicyclo[4.1.0]heptan-2-yl)-8,9,10,10a-tetrahydropyrido[2,3-a]indolizin-5(7H)-one]
153 nM	Cc1c(N2CCC(OCC3(C)CC3)C3CC32)nc2c(c1C)C(=O)N1CCOCC21 (stereo not drawn) [Example 26, 3,4-dimethyl-2-(5-((1-methylcyclopropyl)methoxy)-2-azabicyclo[4.1.0]heptan-2-yl)-7,8,10,10a-tetrahydro-5H-pyrido[2′,3′:3,4]pyrrolo[2,1-c][1,4]oxazin-5-one]
20200 nM	Cc1c(N2CCC(OCC3(C)CC3)C3CC32)nc2c(c1C)C(=O)N(CCS(C)(=O)=O)C2 (single isomer, unassigned) [Example 18]
12000 nM	Cc1c(N2CCC(OCC3(C)CC3)C3CC32)nc2c(c1C)C(=O)N(CC(C)(C)O)C2 (single isomer, unassigned) [Example 20, 6-(2-hydroxy-2-methylpropyl)-3,4-dimethyl-2-(5-((1-methylcyclopropyl)methoxy)-2-azabicyclo[4.1.0]heptan-2-yl)-6,7-dihydro-5H-pyrrolo[3,4-b]pyridin-5-one]
711 nM	Cc1c(N2CCC(OCC3(C)CC3)C3CC32)nc2c(c1C)C(=O)N(C)C2CO (single isomer, unassigned) [Example 6, 7-(hydroxymethyl)-3,4,6-trimethyl-2-(5-((1-methylcyclopropyl)methoxy)-2-azabicyclo[4.1.0]heptan-2-yl)-6,7-dihydro-5H-pyrrolo[3,4-b]pyridin-5-one]
659 nM	Cc1c(N2CCC(OCC3(C)CC3)C3CC32)nc2c(c1C)C(=O)N(C)C2CO (single isomer, unassigned) [Example 7, 7-(hydroxymethyl)-3,4,6-trimethyl-2-(5-((1-methylcyclopropyl)methoxy)-2-azabicyclo[4.1.0]heptan-2-yl)-6,7-dihydro-5H-pyrrolo[3,4-b]pyridin-5-one]
